Experimental data from patent US9381281B2, “Drug eluting mesh to prevent infection of indwelling transdermal devices” (TYRX, INC., priority 2011, dated 2016).
Converted amounts (≈) assume the structure as drawn.

What was measured:
[1] = system: Acinetobacter baumanii A TCC 19606; test: Broth dilution MIC; format: cell-based; details: Acinetobacter baumannii, ATCC19606, read-out: Minimum Inhibitory Concentration
Source text: (§1) Establishing the MIC of antimicrobials is a necessary step in the process of establishing effective use concentrations. Approved standards for this activity with antibiotics are published by NCCLS. These standards are primarily intended for use in clinical settings with patient isolates. However, they represent a consensus methodology for best practice in determining MICs that are reproducible and defensible. The principles upon which they are based provide a sound framework for determining the MIC for the test.
(§2) The broth dilution method was used to measure quantitatively the in vitro activity of an antimicrobial agent against a given microbial isolate. To perform the test, a series of tubes were prepared with a broth to which various concentrations of the antimicrobial agent were added. The tubes were then inoculated with a standardized suspension of the test organism. After incubation the tubes were examined and the minimal inhibitory concentration (MIC) was determined.
(§3) The following organism were used: Acinetobacter baumanii A TCC 19606; Staphylococcus epidermidis A TCC 14990; Staphylococcus aureus ATCC 6538; Methicillin-resistant Staphylococcus aureus ATCC 33591; Escherichia coli ATCC 8739; Staphylococcus capitis ATCC 35661; or Staphylococcus schleiferi ATCC 43808.

[2] = system: Escherichia coli ATCC 8739; test: Broth dilution MIC; format: cell-based; details: ATCC8739, E. coli, read-out: Minimum Inhibitory Concentration
Source text: as §1, §2, §3

[3] = system: Methicillin-resistant Staphylococcus aureus ATCC 33591; test: Broth dilution MIC; format: cell-based; details: ATCC 33591 / MRSA, read-out: Minimum Inhibitory Concentration
Source text: as §1, §2, §3

[4] = system: Staphylococcus aureus ATCC 6538; test: Broth dilution MIC; format: cell-based; details: ATCC6538, S. aureus, read-out: Minimum Inhibitory Concentration
Source text: as §1, §2, §3

[5] = system: Staphylococcus capitis ATCC 35661; test: Broth dilution MIC; format: cell-based; details: ATCC35661, S. capitis, read-out: Minimum Inhibitory Concentration
Source text: as §1, §2, §3

[6] = system: Staphylococcus epidermidis A TCC 14990; test: Broth dilution MIC; format: cell-based; details: ATCC14990, S. epidermidis, read-out: Minimum Inhibitory Concentration
Source text: as §1, §2, §3

[7] = system: Staphylococcus schleiferi ATCC 43808; test: Broth dilution MIC; format: cell-based; details: ATCC43808, read-out: Minimum Inhibitory Concentration
Source text: as §1, §2, §3

myofibroblast formation = details: animal studies of capsular contracture with breast implants (Ajmal et al. 2003); cited from earlier work

Structure (SMILES) | MIC [1] [mg/L] | MIC [2] [mg/L] | MIC [3] [mg/L] | MIC [4] [mg/L] | MIC [5] [mg/L] | MIC [6] [mg/L] | MIC [7] [mg/L] | myofibroblast formation (myofibroblast formation)
CN(C)c1ccc(O)c2c1C[C@H]1C[C@H]3[C@H](N(C)C)C(O)=C(C(N)=O)C(=O)[C@@]3(O)C(O)=C1C2=O [Minocycline] | 0.14 (≈ 0.306 µM) | 2.23 (≈ 4.88 µM) | 2.23 (≈ 4.88 µM) | 0.017 (≈ 0.0372 µM) | 0.017 (≈ 0.0372 µM) | 0.017 (≈ 0.0372 µM) | 0.017 (≈ 0.0372 µM) | –
CO[C@H]1/C=C/O[C@@]2(C)Oc3c(C)c(O)c4c(O)c(c(/C=N/N5CCN(C)CC5)c(O)c4c3C2=O)NC(=O)/C(C)=C\C=C\[C@H](C)[C@H](O)[C@@H](C)[C@@H](O)[C@@H](C)[C@H](OC(C)=O)[C@@H]1C [Rifampin] | 0.129 (≈ 0.157 µM) | 2.06 (≈ 2.5 µM) | 2.06 (≈ 2.5 µM) | 0.016 (≈ 0.0194 µM) | 0.016 (≈ 0.0194 µM) | 0.016 (≈ 0.0194 µM) | 0.016 (≈ 0.0194 µM) | –
O=S(=O)([O-])CCS.[Na+] [Mesna, sodium 2-mercaptoethane sulfonate] | – | – | – | – | – | – | – | diminish myofibroblast formation
